# Where a name gives a salt, the structure may show the parent alone. Read-outs that look alike come from different tables or passages of the source. Non-standard residues stand in square brackets, D forms with d. Residues, ends and D or L forms follow the SMILES beside them. *: point of attachment. Sta = CC(C)C[C@H](N)[C@@H](O)CC(=O)O; Isovaleryl = CC(C)CC(=O)*
# How the values were obtained:
# human NTCP [1] = biological target: T1, human NTCP (Homo sapiens, UniProt Q14973); assay: Screening taurocholate uptake assay (96-well, [14C]taurocholate, 10 µM drug)
# T1 sequence (Q14973 1-349): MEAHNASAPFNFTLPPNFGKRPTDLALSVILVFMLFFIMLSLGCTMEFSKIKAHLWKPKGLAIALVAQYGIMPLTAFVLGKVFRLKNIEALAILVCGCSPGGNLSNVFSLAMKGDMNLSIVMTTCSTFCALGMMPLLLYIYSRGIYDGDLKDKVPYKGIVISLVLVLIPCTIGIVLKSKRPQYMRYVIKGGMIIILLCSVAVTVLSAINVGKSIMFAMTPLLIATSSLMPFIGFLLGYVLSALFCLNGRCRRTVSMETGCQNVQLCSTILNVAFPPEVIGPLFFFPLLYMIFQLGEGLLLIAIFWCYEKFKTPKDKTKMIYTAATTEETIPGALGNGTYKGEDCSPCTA
# human NTCP [2] = biological target: T1, human NTCP; assay: Screening fluorescent competitive Myrcludex B-FITC binding assay (96-well, 10 µM drug)
# [3] = combined ranking from functional and binding screening assays
# [4] = screen, 10 µM drug, taurocholate uptake
# [5] = screen, 10 µM drug, Myrcludex B-FITC binding
# [6] = Prestwick library screen, taurocholate uptake, 10 µM drug
# [7] = ranking score beside the functional and binding assay B-scores of the screen
# [8] = Prestwick library screen, Myrcludex B-FITC binding, 10 µM drug
# [9] = Prestwick library screen, 10 µM drug, B-score of taurocholate uptake
# [10] = combined ranking from functional and binding assay B-scores
# [11] = Prestwick library screen, 10 µM drug, B-score of Myrcludex B-FITC binding
smiles,measurement,setting,value
C[C@]12COC(=O)C[C@@H]1CC[C@@H]1[C@@H]2CC[C@@]2(C)[C@H]1CC[C@]2(C)O [Oxandrolone],B-score functional assay,human NTCP [1],-0.501
same,Ranking score,human NTCP [1],649.785
same,B-score binding assay,human NTCP [2],1.484
O=C(O)CCc1nc(-c2ccccc2)c(-c2ccccc2)o1 [Oxaprozin],Ranking score,human NTCP [1]; [3],341.015
same,B-score functional assay,human NTCP [1]; [4],-0.957
same,B-score binding assay,human NTCP [2]; [5],-0.29
NC(=O)N1c2ccccc2CC(=O)c2ccccc21 [Oxcarbazepine],B-score functional assay,human NTCP [1]; [6],0.032
same,Ranking score,human NTCP [1]; [7],789.959
same,B-score binding assay,human NTCP [2]; [8],0.508
COC(=O)Nc1nc2ccc([S+]([O-])c3ccccc3)cc2[nH]1 (stereo not drawn) [Oxfendazol],B-score functional assay,human NTCP [1]; [9],0.699
same,Ranking score,human NTCP [1]; [10],1042.44
same,B-score binding assay,human NTCP [2]; [11],1.363
CCn1cc(C(=O)O)c(=O)c2cc3c(cc21)OCO3 [Oxolinic acid],B-score functional assay,human NTCP [1]; [6],-0.139
same,Ranking score,human NTCP [1]; [7],776.518
same,B-score binding assay,human NTCP [2]; [8],1.837
C=CCOc1ccccc1OCC(O)CNC(C)C (stereo not drawn) [Oxprenolol hydrochloride],Ranking score,human NTCP [1]; [3],434.185
same,B-score functional assay,human NTCP [1]; [4],-0.061
same,B-score binding assay,human NTCP [2]; [5],-0.666
COc1ccc(C(=O)c2ccccc2)c(O)c1 [Oxybenzone],B-score functional assay,human NTCP [1]; [6],2.742
same,Ranking score,human NTCP [1]; [7],706.929
same,B-score binding assay,human NTCP [2]; [8],-0.416
CCN(CC)CC#CCOC(=O)C(O)(c1ccccc1)C1CCCCC1 (stereo not drawn) [Oxybutynin chloride],B-score functional assay,human NTCP [1]; [6],0.163
same,Ranking score,human NTCP [1]; [7],808.614
same,B-score binding assay,human NTCP [2]; [8],0.285
Cc1cc(C(C)(C)C)c(O)c(C)c1CC1=NCCN1 [Oxymetazoline hydrochloride],B-score functional assay,human NTCP [1]; [9],0.493
same,Ranking score,human NTCP [1]; [10],1060.78
same,B-score binding assay,human NTCP [2]; [11],2.755
CCCCC1C(=O)N(c2ccccc2)N(c2ccc(O)cc2)C1=O (stereo not drawn) [Oxyphenbutazone],B-score functional assay,human NTCP [1]; [9],2.782
same,Ranking score,human NTCP [1]; [10],1000.56
same,B-score binding assay,human NTCP [2]; [11],0.23
CN(C)[C@@H]1C(O)=C(C(N)=O)C(=O)[C@@]2(O)C(O)=C3C(=O)c4c(O)cccc4[C@@](C)(O)[C@H]3[C@H](O)[C@@H]12 [Oxytetracycline dihydrate],B-score functional assay,human NTCP [1]; [9],0.414
same,Ranking score,human NTCP [1]; [10],958.668
same,B-score binding assay,human NTCP [2]; [11],1.019
Cl.O=C(O)/C=C/c1ccc(Cn2ccnc2)cc1 [Ozagrel hydrochloride],B-score functional assay,human NTCP [1]; [9],1.392
same,Ranking score,human NTCP [1]; [10],1118.41
same,B-score binding assay,human NTCP [2]; [11],1.332
CC(=O)O[C@H]1C(=O)[C@@]2(C)[C@H]([C@H](OC(=O)c3ccccc3)[C@]3(O)C[C@H](OC(=O)[C@H](O)[C@@H](NC(=O)c4ccccc4)c4ccccc4)C(C)=C1C3(C)C)[C@]1(OC(C)=O)CO[C@@H]1C[C@@H]2O [Paclitaxel],B-score functional assay,human NTCP [1]; [6],-0.069
same,Ranking score,human NTCP [1]; [7],752.811
same,B-score binding assay,human NTCP [2]; [8],0.829
O=C1c2cccc3c2[C@H](CCC3)CN1[C@@H]1CN2CCC1CC2 [Palonosetron hydrochloride],B-score functional assay,human NTCP [1]; [6],1.95
same,Ranking score,human NTCP [1]; [7],833.96
same,B-score binding assay,human NTCP [2]; [8],-0.051
CC(=O)O[C@H]1C[C@@H]2CC[C@@H]3[C@H](CC[C@@]4(C)[C@H]3C[C@H]([N+]3(C)CCCCC3)[C@@H]4OC(C)=O)[C@@]2(C)C[C@@H]1[N+]1(C)CCCCC1 [Pancuronium bromide],B-score functional assay,human NTCP [1]; [6],0.614
same,Ranking score,human NTCP [1]; [7],767.5
same,B-score binding assay,human NTCP [2]; [8],-0.008
CC(C)(CO)[C@@H](O)C(=O)NCCCO [Panthenol (D)],B-score functional assay,human NTCP [1]; [9],0.501
same,Ranking score,human NTCP [1]; [10],899.92
same,B-score binding assay,human NTCP [2]; [11],0.428
COc1ccnc(C[S+]([O-])c2nc3ccc(OC(F)F)cc3[nH]2)c1OC (stereo not drawn) [Pantoprazole sodium],B-score functional assay,human NTCP [1],0.443
same,Ranking score,human NTCP [1],878.449
same,B-score binding assay,human NTCP [2],0.377
COc1ccc(Cc2nccc3cc(OC)c(OC)cc23)cc1OC [Papaverine hydrochloride],B-score functional assay,human NTCP [1]; [6],-0.09
same,Ranking score,human NTCP [1]; [7],728.955
same,B-score binding assay,human NTCP [2]; [8],0.722
CCCCc1ccc2[nH]c(NC(=O)OC)nc2c1 [Parbendazole],B-score functional assay,human NTCP [1]; [9],1.481
same,Ranking score,human NTCP [1]; [10],989.697
same,B-score binding assay,human NTCP [2]; [11],0.33
C#CCN(C)Cc1ccccc1 [Pargyline hydrochloride],B-score functional assay,human NTCP [1]; [6],-0.107
same,Ranking score,human NTCP [1]; [7],685.259
same,B-score binding assay,human NTCP [2]; [8],0.419
NC[C@@H]1O[C@H](O[C@H]2[C@@H](O)[C@H](O[C@@H]3[C@@H](O)[C@H](N)C[C@H](N)[C@H]3O[C@H]3O[C@H](CO)[C@@H](O)[C@H](O)[C@H]3N)O[C@@H]2CO)[C@H](N)[C@@H](O)[C@@H]1O [Paromomycin sulfate],B-score functional assay,human NTCP [1]; [9],0.247
same,Ranking score,human NTCP [1]; [10],976.576
same,B-score binding assay,human NTCP [2]; [11],1.613
Fc1ccc([C@@H]2CCNC[C@H]2COc2ccc3c(c2)OCO3)cc1 [Paroxetine Hydrochloride],B-score functional assay,human NTCP [1]; [9],0.185
same,Ranking score,human NTCP [1]; [10],918.273
same,B-score binding assay,human NTCP [2]; [11],1.07
CN1C(C)(C)CCCC1(C)C [Pempidine tartrate],B-score functional assay,human NTCP [1]; [9],1.102
same,Ranking score,human NTCP [1]; [10],1065.26
same,B-score binding assay,human NTCP [2]; [11],1.02
CC(C)(C)NC[C@H](O)COc1ccccc1C1CCCC1 [Penbutolol sulfate],Ranking score,human NTCP [1]; [3],368.646
same,B-score functional assay,human NTCP [1]; [4],0.103
same,B-score binding assay,human NTCP [2]; [5],-1.346
O=C(O)CN(CCN(CC(=O)O)CC(=O)O)CCN(CC(=O)O)CC(=O)O [Pentetic acid],Ranking score,human NTCP [1]; [3],406.409
same,B-score functional assay,human NTCP [1]; [4],-0.313
same,B-score binding assay,human NTCP [2]; [5],-0.525
CCCC(C)C1(CC)C(=O)NC(=O)NC1=O (stereo not drawn) [Pentobarbital],B-score functional assay,human NTCP [1],-0.299
same,Ranking score,human NTCP [1],697.378
same,B-score binding assay,human NTCP [2],1.244
C[N+]1(CCCCC[N+]2(C)CCCC2)CCCC1.O=C([O-])C(O)C(O)C(=O)O.O=C([O-])C(O)C(O)C(=O)O [Pentolinium bitartrate],Ranking score,human NTCP [1]; [3],451.889
same,B-score functional assay,human NTCP [1]; [4],-0.089
same,B-score binding assay,human NTCP [2]; [5],-0.512
C1CCc2nnnn2CC1 [Pentylenetetrazole],B-score functional assay,human NTCP [1]; [6],0.223
same,Ranking score,human NTCP [1]; [7],696.951
same,B-score binding assay,human NTCP [2]; [8],-0.037
CC(C)CC(=O)N[C@H](C(=O)N[C@H](C(=O)N[C@@H](CC(C)C)[C@@H](O)CC(=O)N[C@@H](C)C(=O)N[C@@H](CC(C)C)[C@@H](O)CC(=O)O)C(C)C)C(C)C [Pepstatin A] (Isovaleryl-VV[Sta]A[Sta]-OH),B-score functional assay,human NTCP [1]; [6],2.688
same,Ranking score,human NTCP [1]; [7],763.991
same,B-score binding assay,human NTCP [2]; [8],-0.237
CCCN1C[C@H](CSC)C[C@@H]2c3cccc4[nH]cc(c34)C[C@H]21 [Pergolide mesylate],B-score functional assay,human NTCP [1]; [6],-0.089
same,Ranking score,human NTCP [1]; [7],708.625
same,B-score binding assay,human NTCP [2]; [8],0.514
C1CCC(C(CC2CCCCN2)C2CCCCC2)CC1 (stereo not drawn) [Perhexiline maleate],Ranking score,human NTCP [1]; [3],400.32
same,B-score functional assay,human NTCP [1]; [4],-0.011
same,B-score binding assay,human NTCP [2]; [5],-0.916
CCC[C@H](N[C@@H](C)C(=O)N1[C@H](C(=O)O)C[C@@H]2CCCC[C@@H]21)C(=O)OCC [Perindopril],Ranking score,human NTCP [1]; [3],319.862
same,B-score functional assay,human NTCP [1]; [4],-2.428
same,B-score binding assay,human NTCP [2]; [5],1.021
O=C1[C@H]2CCCC[C@H]2C(=O)N1CCCCN1CCN(c2nsc3ccccc23)CC1 [Perospirone],B-score functional assay,human NTCP [1]; [9],0.093
same,Ranking score,human NTCP [1]; [10],917.333
same,B-score binding assay,human NTCP [2]; [11],1.438
CCOc1ccc(NC(C)=O)cc1 [Phenacetin],B-score functional assay,human NTCP [1]; [9],0.074
same,Ranking score,human NTCP [1]; [10],860.113
same,B-score binding assay,human NTCP [2]; [11],0.917
